Laboratory results: ChEMBL document CHEMBL6078704, “Redesigning Berberines and Sanguinarines to Target Soluble Epoxide Hydrolase for Enhanced Anti-Inflammatory Efficacy” (J Med Chem, 2024)

Experiments:
[1] = target: T1, Bifunctional epoxide hydrolase 2 (Mus musculus, UniProt P34914); assay: Inhibition of male C57BL/6J mouse brain sEH assessed as quantity of 14,15-DHET level measured after 15 mins incubation by HPLC-MS analysis
T1 sequence (P34914 whole entry): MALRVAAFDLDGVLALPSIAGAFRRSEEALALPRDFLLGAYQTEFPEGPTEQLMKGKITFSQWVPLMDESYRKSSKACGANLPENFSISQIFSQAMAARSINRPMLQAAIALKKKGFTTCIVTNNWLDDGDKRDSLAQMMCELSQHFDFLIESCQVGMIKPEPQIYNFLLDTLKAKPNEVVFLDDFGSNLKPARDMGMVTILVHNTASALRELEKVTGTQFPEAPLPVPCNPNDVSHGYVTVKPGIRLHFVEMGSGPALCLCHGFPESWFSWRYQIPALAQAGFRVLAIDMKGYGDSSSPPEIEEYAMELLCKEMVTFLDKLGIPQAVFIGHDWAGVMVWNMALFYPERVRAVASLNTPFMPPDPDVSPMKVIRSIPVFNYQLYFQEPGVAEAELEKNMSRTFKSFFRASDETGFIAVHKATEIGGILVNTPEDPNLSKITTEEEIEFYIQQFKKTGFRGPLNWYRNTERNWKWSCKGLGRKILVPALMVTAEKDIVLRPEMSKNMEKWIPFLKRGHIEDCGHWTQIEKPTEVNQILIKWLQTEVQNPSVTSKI

HepG2 = assay: Cytotoxicity against human HepG2 cells assessed as cell viability at 0.5 to 5 uM measured after 48 hrs by CCK-8 assay; format: toxicity, cell-based; details: hepg2, 48 h, dose 0.5-5 µM
HEK-293T = assay: Cytotoxicity against human 293T cells assessed as cell viability at 0.5 to 5 uM measured after 48 hrs by CCK-8 assay; format: toxicity, cell-based; details: dose 0.5-5 µM
Staphylococcus aureus [2] = assay: Antimicrobial activity against Staphylococcus aureus ATCC 29213 by microbroth dilution method; format: functional
Staphylococcus aureus [3] = assay: Antimicrobial activity against methicillin-resistant Staphylococcus aureus 19B120 by microbroth dilution method; format: functional
Mus musculus [4] = assay: Antiinflammatory activity against cerulein-induced acute pancreatitis in CD1 mouse assessed as increase in pancreatic 8,9-EET/DHET ratio at 20 mg/kg, ip pretreated with cerulein followed by compound injection on 30 and 150 mins and measured 6 hrs post cerulein treatment relative to model group; format: functional; details: time 30-360 min
Mus musculus [5] = assay: Antiinflammatory activity against cerulein-induced acute pancreatitis in CD1 mouse assessed as increase in pancreatic 14,15-EET/DHET ratio at 20 mg/kg, ip pretreated with cerulein followed by compound injection on 30 and 150 mins and measured 6 hrs post cerulein treatment relative to model group; format: functional; details: time 30-360 min
Mus musculus [6] = assay: Antiinflammatory activity against cerulein-induced acute pancreatitis in CD1 mouse assessed as increase in plasma 8,9-EET/DHET ratio at 20 mg/kg, ip pretreated with cerulein followed by compound injection on 30 and 150 mins and measured 6 hrs post cerulein treatment relative to model group; format: functional; details: time 30-360 min
Mus musculus [7] = assay: Antiinflammatory activity against cerulein-induced acute pancreatitis in CD1 mouse assessed as increase in plasma 14,15-EET/DHET ratio at 20 mg/kg, ip pretreated with cerulein followed by compound injection on 30 and 150 mins and measured 6 hrs post cerulein treatment relative to model group; format: functional; details: time 30-360 min
Mus musculus [8] = assay: Anti-inflammatory activity in carrageen-induced paw edema BALB/c mouse model assessed as inhibition of soft tissue edema and inflammation measured immediately at 20 mg/kg, po measured at 1 to 4 hrs; format: functional; details: time 1-4 hrs
Mus musculus [9] = assay: Anti-inflammatory activity in carrageen-induced paw edema BALB/c mouse model assessed as inhibition of soft tissue edema and inflammation measured immediately at 0.5 mg/kg, ip measured up to 6 hrs; format: functional

Row | SMILES | IC50 [1] | Activity (HepG2) | Activity (HEK-293T) | other results
1 | CCC(=O)N1CCC(NC(=O)Nc2ccc3c(c2)CN2CCc4cc(OC)c(OC)cc4C2C3)CC1 (stereo unspecified) | 143 nM | – | – | –
2 | CCC(=O)N1CCC(CNC(=O)Nc2ccc3c(c2)CN2CCc4cc5c(cc4C2C3)OCO5)CC1 (stereo unspecified) | 15.6 nM | Non-toxic | Non-toxic | –
3 | COc1cc2c(cc1OC)-c1cc3ccc(NC(=O)NCc4ccc(OC(F)(F)F)cc4)cc3c(=O)n1CC2 | 37.6 nM | – | – | –
4 | CCC(=O)N1CCC(CNC(=O)Nc2ccc3c(c2)CN2CCc4cc(OC)c(OC)cc4C2C3)CC1 (stereo unspecified) | 18.8 nM | – | – | –
5 | COc1cc2c(cc1OC)CN1CCc3cc(NC(=O)NCc4ccc(OC(F)(F)F)cc4)ccc3[C@H]1C2 | – | Non-toxic | Non-toxic | MIC (Staphylococcus aureus [2]): > 64 µg/mL; MIC (Staphylococcus aureus [3]): > 64 µg/mL; fold change (FC) (Mus musculus [4]): 6.7; fold change (FC) (Mus musculus [5]): 18.5; fold change (FC) (Mus musculus [6]): 2; fold change (FC) (Mus musculus [7]): 3.3
6 | COc1ccc2cc3[n+](cc2c1OC)CCc1cc2c(cc1-3)OCO2 [BERBERINE] | – | – | – | MIC (Staphylococcus aureus [2]): 64 µg/mL; MIC (Staphylococcus aureus [3]): 32 µg/mL
7 | COc1cc2cc3[n+](cc2cc1OC)CCc1cc(NC(=O)NCc2ccc(OC(F)(F)F)cc2)ccc1-3.[Cl-] | 39.1 nM | – | – | MIC (Staphylococcus aureus [2]): 8 µg/mL; MIC (Staphylococcus aureus [3]): 4 µg/mL
8 | COc1cc2c(cc1OC)C1Cc3ccc(NC(=O)NCc4ccc(S(N)(=O)=O)cc4)cc3CN1CC2 (stereo unspecified) | 17.3 nM | – | – | –
9 | CCC(=O)N1CCC(CNC(=O)Nc2ccc3c(c2)CCN2Cc4cc(OC)c(OC)cc4CC32)CC1 (stereo unspecified) | 42.7 nM | – | – | –
10 | COc1cc2c(cc1OC)CN1CCc3cc(NC(=O)NCc4ccc(OC(F)(F)F)cc4)ccc3[C@@H]1C2 | – | – | – | inhibition in vivo at 20 mg/kg (Mus musculus [8]): 27%
11 | COc1cc2c(cc1OC)C1Cc3ccc(NC(=O)Nc4ccc(OC(F)(F)F)cc4)cc3CN1CC2 (stereo unspecified) | 40.7 nM | – | – | –
12 | COc1cc2c(cc1OC)C1Cc3ccc(NC(=O)NCC4COC4)cc3CN1CC2 (stereo unspecified) | 2650 nM | – | – | –
13 | COc1cc2c(cc1OC)C1Cc3ccc(NC(=O)NC[C@@H]4CCCO4)cc3CN1CC2 (stereo partly specified) | 54.3 nM | – | – | –
14 | CCC(=O)N1CCC(NC(=O)Nc2ccc3c(c2)CN2CCc4cc5c(cc4C2C3)OCO5)CC1 (stereo unspecified) | 97.1 nM | – | – | –
15 | CC(C)CNC(=O)Nc1ccc2c(c1)CN(C)c1c-2ccc2ccccc12 | 20.5 nM | – | – | –
16 | COc1cc2c(cc1OC)-c1cc3ccc(NC(=O)NCc4ccc(OC(F)(F)F)cc4)cc3c[n+]1CC2 | 210 nM | – | – | MIC (Staphylococcus aureus [2]): 8 µg/mL; MIC (Staphylococcus aureus [3]): 8 µg/mL
17 | O=C(NCC1CCOCC1)Nc1ccc2c(c1)CN1CCc3cc4c(cc3C1C2)OCO4 (stereo unspecified) | 15.9 nM | – | – | –
18 | COc1cc2c(cc1OC)CN1CCc3cc(NC(=O)NCC4CCOCC4)ccc3C1C2 (stereo unspecified) | 21.2 nM | – | – | –
19 | CCC(=O)N1CCC(NC(=O)Nc2ccc(OC(F)(F)F)cc2)CC1 | – | – | – | inhibition in vivo at 0.5 mg/kg (Mus musculus [9]): 15%; inhibition in vivo at 20 mg/kg (Mus musculus [8]): 25%
20 | COc1cc2c(cc1OC)C1Cc3ccc(NC(=O)NCC4CCOCC4)cc3CN1CC2 (stereo unspecified) | 19.4 nM | – | – | –

More lines, in order of falling IC50 [1], values ahead:

Row | IC50 [1] | SMILES | Activity (HepG2) | Activity (HEK-293T) | other results
21 | 12.1 nM | CN1Cc2cc(NC(=O)NCc3ccc(OC(F)(F)F)cc3)ccc2-c2ccc3ccccc3c21 | – | – | –
22 | 9.98 nM | CC(C)CNC(=O)Nc1ccc2c(c1)CN1CCc3cc4c(cc3C1C2)OCO4 (stereo unspecified) | – | – | –
23 | 6.94 nM | CCC(=O)N1CCC(CNC(=O)Nc2ccc3c(c2)CN(C)c2c-3ccc3ccccc23)CC1 | Non-toxic | Non-toxic | –
24 | 6.13 nM | COc1cc2c(cc1OC)C1Cc3ccc(NC(=O)NCc4ccc(S(C)(=O)=O)cc4)cc3CN1CC2 (stereo unspecified) | Non-toxic | Non-toxic | inhibition in vivo at 0.5 mg/kg (Mus musculus [9]): 25%
25 | 5.56 nM | CN1Cc2cc(NC(=O)NCC3CCOCC3)ccc2-c2ccc3ccccc3c21 | Non-toxic | Non-toxic | –
26 | 4.98 nM | COc1cc2c(cc1OC)C1Cc3ccc(NC(=O)NCC4CCCCC4)cc3CN1CC2 (stereo unspecified) | – | – | –
27 | 2.83 nM | COc1cc2c(cc1OC)CN1CCc3cc(NC(=O)NCc4ccc(OC(F)(F)F)cc4)ccc3C1C2 (stereo unspecified) | Non-toxic | Non-toxic | inhibition in vivo at 0.5 mg/kg (Mus musculus [9]): 35%
28 | 2.55 nM | COc1cc2c(cc1OC)C1Cc3ccc(NC(=O)NCc4cccc(OC(F)(F)F)c4)cc3CN1CC2 (stereo unspecified) | Non-toxic | Non-toxic | inhibition (Mus musculus [9]): Active; Reduced Inhibition In Later Stages Of Experiment
29 | 2.34 nM | O=C(NCc1cccc(OC(F)(F)F)c1)Nc1ccc2c(c1)CN1CCc3cc4c(cc3C1C2)OCO4 (stereo unspecified) | – | – | –
30 | 1.49 nM | O=C(NCc1ccc(OC(F)(F)F)cc1)Nc1ccc2c(c1)CN1CCc3cc4c(cc3C1C2)OCO4 (stereo unspecified) | – | – | –
31 | 1.33 nM | COc1cc2c(cc1OC)C1Cc3ccc(NC(=O)NCc4ccc(OC(F)F)cc4)cc3CN1CC2 (stereo unspecified) | Non-toxic | Non-toxic | –
32 | 0.86 nM | COc1cc2c(cc1OC)C1Cc3ccc(NC(=O)NCc4ccc(OC(F)(F)F)cc4)cc3CN1CC2 (stereo unspecified) | Non-toxic | Non-toxic | inhibition in vivo at 0.5 mg/kg (Mus musculus [9]): 35%
33 | 0.73 nM | COc1cc2c(cc1OC)CN1CCc3cc(NC(=O)NCc4ccc(OC(F)F)cc4)ccc3C1C2 (stereo unspecified) | Non-toxic | Non-toxic | –
34 | 0.67 nM | O=C(NCc1ccc(OC(F)F)cc1)Nc1ccc2c(c1)CN1CCc3cc4c(cc3C1C2)OCO4 (stereo unspecified) | Non-toxic | Non-toxic | –
